Source: patent US20030235583A1, “Combined use of a modulator of CD3 and a beta cell resting compound” (priority 2002, published 2003)

Experiments:
human islets = test: apoptosis of human islets incubated in high glucose; type: cell-based; details: co-incubated with compound vs not co-incubated
From the text: Another potential way to intervene in the destruction of beta-cells in the development of Type 1 diabetes is by treatment with compounds that inhibit insulin secretion, thereby inducing beta-cell rest.

beta-cells = details: 3 months treatment; cited from earlier work

Row | Compound | apoptosis, or programmed cell death, of human islets (human islets) | residual C-peptide, a marker of beta-cell function (beta-cells)
1 | CC1(NC2=NS(=O)(=O)c3sc(Cl)cc3N2)CC1 [6-chloro-3-(1-methylcyclopropyl)amino-4H-thieno[3,2-e]-1,2,4-thiadiazine 1,1-dioxide] | significantly less apoptosis | 
2 | CC1=NS(=O)(=O)c2cc(Cl)ccc2N1 [diazoxide] |  | preservation of residual C-peptide
